Like-named read-outs stand apart in the source and are kept apart here.

By IC50 is commonly meant the midpoint of a concentration-inhibition curve.

For this assay, the target named is Human Cav3.1 (Homo sapiens (Human), UniProt O43497). The experiment in a line: Human Cav3.1 calcium channel patch clamp assay (SyncroPatch 384PE, HEK-293 natClytin/TASK1+Cav3.1 cell line). It counts as cell-based. How it is done:
Pulse generation and data collection were performed with PatchController384 V1.3.0 and DataController384 V1.2.1 (Nanion Technologies). Off-line analysis was performed using Excel and Graphpad Prism (V 8.4.2) with complete data files uploaded to Dotmatics. The access resistance and apparent membrane capacitance were estimated using built-in protocols. Current was recorded in whole cell configuration from a population of cells. The cells were lifted, triturated, and resuspended at 800,000 cells/ml. The cells were allowed to recover in the cell hotel prior to experimentation. Currents were recorded at room temperature. The external solution contained the following (in mM): NaCl 80, NMDG 60, KCl 4, MgCl2 1, CaCl2 6, glucose 5 and HEPES 10 (pH=7.4, Osmolarity ˜300 mOsm). The extracellular solution was used as the wash, reference and compound delivery solution. […] The compound plate was created at 2× concentrated in the extracellular solution. The compound was diluted to 1:2 when added to the recording well. The amount of DMSO in the extracellular solution was held constant at the level used for the highest tested concentration. For the voltage clamp experiments on Cav3.1, data were sampled at 10 KHz. After establishment of the seal and the passage in the whole cell configuration, the cells were held at −120 mV. Cav3.1 current was evoked using a 100 ms step to −20 mV (to measure resting state block), followed by a 1600 ms step to −65 mV and a second 100 ms step to −20 mV (to measure voltage dependent block). The voltage protocol was applied every 15 seconds in the absence and in the presence of the compounds under investigation. […] Current amplitude (pA) was measured in the peak 1 and 2. The average of last 3 sweeps of each liquid period (vehicle, compound under investigation, full block) was calculated. Nickel-sensitive current was used to calculate the % of inhibition in the presence of the compound under investigation.
Pulse generation and data collection were performed with PatchController384 V1.3.0 and DataController384 V1.2.1 (Nanion Technologies). Off-line analysis was performed using Excel and Graphpad Prism (V 8.4.2) with complete data files uploaded to Dotmatics. The access resistance and apparent membrane capacitance were estimated using built-in protocols. Current was recorded in whole cell configuration from a population of cells.
The cells were lifted, triturated, and resuspended at 800,000 cells/ml. The cells were allowed to recover in the cell hotel prior to experimentation. Currents were recorded at room temperature. The external solution contained the following (in mM): NaCl 80, NMDG 60, KCl 4, MgCl2 1, CaCl2 6, glucose 5 and HEPES 10 (pH=7.4, Osmolarity ˜300 mOsm). The extracellular solution was used as the wash, reference and compound delivery solution.
The compound plate was created at 2× concentrated in the extracellular solution. The compound was diluted to 1:2 when added to the recording well. The amount of DMSO in the extracellular solution was held constant at the level used for the highest tested concentration. For the voltage clamp experiments on Cav3.1, data were sampled at 10 KHz. After establishment of the seal and the passage in the whole cell configuration, the cells were held at −120 mV. Cav3.1 current was evoked using a 100 ms step to −20 mV (to measure resting state block), followed by a 1600 ms step to −65 mV and a second 100 ms step to −20 mV (to measure voltage dependent block). The voltage protocol was applied every 15 seconds in the absence and in the presence of the compounds under investigation. […] Current amplitude (pA) was measured in the peak 1 and 2. The average of last 3 sweeps of each liquid period (vehicle, compound under investigation, full block) was calculated. Nickel-sensitive current was used to calculate the % of inhibition in the presence of the compound under investigation.
Background: The patch-clamp technique gives a direct electrical read-out from membranes.

Where [1] appears, read: voltage dependent block (VDB), read-out: Cav3.1 (VDB) IC50.
The mark [2] stands for this setting: patch clamp, HEK-293 natClytin/TASK1+Cav3.1 cells, class symbols, read-out: Human Cav3.1 IC50.

Sequence of Human Cav3.1 (O43497 whole entry): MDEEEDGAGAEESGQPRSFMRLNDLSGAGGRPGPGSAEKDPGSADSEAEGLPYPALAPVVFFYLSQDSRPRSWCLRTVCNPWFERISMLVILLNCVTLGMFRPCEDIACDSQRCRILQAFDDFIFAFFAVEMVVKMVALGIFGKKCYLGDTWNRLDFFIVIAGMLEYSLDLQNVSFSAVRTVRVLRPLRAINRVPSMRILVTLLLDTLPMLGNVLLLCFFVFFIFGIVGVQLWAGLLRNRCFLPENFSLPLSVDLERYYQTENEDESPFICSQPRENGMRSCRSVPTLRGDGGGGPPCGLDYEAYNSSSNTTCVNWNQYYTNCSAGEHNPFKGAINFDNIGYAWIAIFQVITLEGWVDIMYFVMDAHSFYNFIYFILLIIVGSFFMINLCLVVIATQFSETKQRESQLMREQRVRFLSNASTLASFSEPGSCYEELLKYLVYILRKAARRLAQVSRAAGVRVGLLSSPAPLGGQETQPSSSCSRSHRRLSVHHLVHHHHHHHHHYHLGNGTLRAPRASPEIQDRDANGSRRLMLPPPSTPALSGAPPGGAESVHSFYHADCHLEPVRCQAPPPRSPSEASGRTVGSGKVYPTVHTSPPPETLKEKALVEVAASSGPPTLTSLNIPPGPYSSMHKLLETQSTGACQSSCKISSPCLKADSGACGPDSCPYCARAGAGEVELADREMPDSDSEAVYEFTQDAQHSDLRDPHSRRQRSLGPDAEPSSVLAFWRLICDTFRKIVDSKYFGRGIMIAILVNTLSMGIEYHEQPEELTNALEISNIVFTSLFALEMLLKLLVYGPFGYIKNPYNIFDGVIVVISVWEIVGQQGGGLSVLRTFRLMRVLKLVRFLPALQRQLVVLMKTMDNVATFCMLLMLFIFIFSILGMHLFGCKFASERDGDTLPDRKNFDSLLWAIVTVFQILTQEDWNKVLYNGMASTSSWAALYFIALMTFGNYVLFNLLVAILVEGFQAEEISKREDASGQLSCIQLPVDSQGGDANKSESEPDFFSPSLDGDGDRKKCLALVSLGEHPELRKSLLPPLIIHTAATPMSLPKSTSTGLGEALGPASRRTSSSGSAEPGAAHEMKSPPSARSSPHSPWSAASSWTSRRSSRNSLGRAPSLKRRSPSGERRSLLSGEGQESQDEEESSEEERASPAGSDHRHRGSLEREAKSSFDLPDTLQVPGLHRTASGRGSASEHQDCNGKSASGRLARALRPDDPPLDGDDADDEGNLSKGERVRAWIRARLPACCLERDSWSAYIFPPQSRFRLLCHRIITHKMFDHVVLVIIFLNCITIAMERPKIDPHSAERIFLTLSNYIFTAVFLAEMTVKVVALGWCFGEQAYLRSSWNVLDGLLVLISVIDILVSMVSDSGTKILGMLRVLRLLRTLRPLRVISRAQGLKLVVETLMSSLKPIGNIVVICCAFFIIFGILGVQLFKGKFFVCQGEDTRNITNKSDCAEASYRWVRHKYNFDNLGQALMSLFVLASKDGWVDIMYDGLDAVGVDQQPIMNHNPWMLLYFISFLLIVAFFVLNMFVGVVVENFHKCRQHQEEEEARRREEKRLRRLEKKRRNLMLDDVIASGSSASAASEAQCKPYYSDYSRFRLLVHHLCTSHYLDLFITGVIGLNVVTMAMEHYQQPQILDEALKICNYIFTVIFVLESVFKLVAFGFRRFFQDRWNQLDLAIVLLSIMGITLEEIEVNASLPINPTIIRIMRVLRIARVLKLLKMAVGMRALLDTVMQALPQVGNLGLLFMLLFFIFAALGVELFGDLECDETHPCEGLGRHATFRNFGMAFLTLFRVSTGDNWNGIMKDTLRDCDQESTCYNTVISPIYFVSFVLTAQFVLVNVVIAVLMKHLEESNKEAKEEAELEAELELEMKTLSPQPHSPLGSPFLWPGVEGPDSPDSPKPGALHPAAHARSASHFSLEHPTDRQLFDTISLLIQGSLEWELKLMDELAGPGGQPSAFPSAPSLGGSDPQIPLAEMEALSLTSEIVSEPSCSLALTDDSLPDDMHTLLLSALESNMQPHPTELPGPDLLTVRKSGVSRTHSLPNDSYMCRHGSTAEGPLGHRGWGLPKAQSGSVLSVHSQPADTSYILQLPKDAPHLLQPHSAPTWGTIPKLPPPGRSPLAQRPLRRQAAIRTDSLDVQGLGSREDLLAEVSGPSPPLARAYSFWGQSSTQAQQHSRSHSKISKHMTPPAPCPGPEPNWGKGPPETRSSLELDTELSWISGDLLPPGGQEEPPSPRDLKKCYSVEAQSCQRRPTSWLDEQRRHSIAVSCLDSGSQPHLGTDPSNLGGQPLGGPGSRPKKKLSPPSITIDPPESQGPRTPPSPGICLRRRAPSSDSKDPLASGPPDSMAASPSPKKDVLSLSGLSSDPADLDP

Take `Cc1cc(Cl)cc(NC(=O)C2CCC3(CC2)CN(CC2(C#N)CC2)C3)c1` [Example 136]: the 50% inhibitory concentration (IC50) under setting [1] was determined as 991 nM.

Take `O=C(CN1CC2(CCC(C(=O)Nc3cc(F)cc(Cl)c3)CC2)C1)NC1(C(F)F)CC1` [Example 140]: under setting [1], the half-inhibitory concentration (IC50) came out at 283 nM.

Regarding `CC1(NC(=O)CN2CC3(CCC(C(=O)Nc4cc(F)cc(Cl)c4)CC3)C2)CCC1` [Example 12], the IC50 by setting is: under setting [2], less than 1000 nM; under setting [1], 112 nM.

Consider `O=C(CN1CC2(CCC(C(=O)Nc3cc(F)cc(OC(F)F)c3)CC2)C1)NC1(C(F)(F)F)CC1` [Example 119], for which, under setting [1], the IC50 came to 366 nM.

In the case of `CC(C)(C)NC(=O)CN1CC2(CCC(C(=O)Nc3cc(Cl)cc(Cl)c3)CC2)C1` [Example 1, 2-(2-(tert-butylamino)-2-oxoethyl)-N-(3,5-dichlorophenyl)-2-azaspiro[3.5]nonane-7-carboxamide], the IC50 by setting is: under setting [2], less than 1000 nM; under setting [1], 176 nM.

As for `N#CC1(CN2CC3(CCC(C(=O)Nc4cc(F)cc(Cl)c4)CC3)C2)CC1` [Example 118], the IC50 under setting [1] came out at 529 nM.

As for `CC(C)(C)NC(=O)CN1CC2(CCC(C(=O)Nc3cc(F)cc(Cl)c3)CC2)C1` [Example 25], the concentration for half-maximal inhibition (IC50) runs as follows: under setting [2], less than 1000 nM; under setting [1], 174 nM.

Consider `COCC(C)(C)NC(=O)CN1CC2(CCC(C(=O)Nc3cc(F)cc(C(F)F)c3)CC2)C1` [Example 45], for which the IC50 under setting [1] was found to be 191 nM.

`O=C(Nc1cc(F)cc(C(F)F)c1)C1CCC2(CC1)CN(CC1CCC(F)(F)CC1)C2` [Example 28]: the IC50 is less than 1000 nM under setting [2] and 370 nM under setting [1].

Turning to `N#CC1(CN2CC3(CCC(C(=O)Nc4cc(F)cc(Cl)c4)CC3)C2)CCC(F)(F)CC1` [Example 107], under setting [1], the IC50 worked out at 427 nM.

Consider `COc1cc(NC(=O)C2CCC3(CC2)CN(CC(=O)NC2(C(F)(F)F)CC2)C3)ccc1F` [Example 125], for which the 50% inhibitory concentration (IC50) under setting [1] came to 588 nM.

As for `O=C(CN1CC2(CCC(C(=O)NC34CCC(CC3)C4)CC2)C1)NC1(C(F)(F)F)CC1` [Example 150], the half-inhibitory concentration (IC50) under setting [1] stood at 1960 nM.

In the case of `O=C(Nc1cc(F)cc(Cl)c1)C1CCC2(CC1)CN(CC(F)C1CCCC1)C2` (stereo not drawn) [Example 77], the half-inhibitory concentration (IC50) under setting [1] worked out at 439 nM.

As for `COc1cccc(NC(=O)C2CCC3(CC2)CN(CC(=O)NC(C)(C)C)C3)c1` [Example 75], the 50% inhibitory concentration (IC50) under setting [1] was determined as 1080 nM.

Turning to `O=C(Nc1cc(F)cc(C(F)F)c1)C1CCC2(CC1)CN(CC(=O)N1CCOCC13CC3)C2` [Example 42], the half-inhibitory concentration (IC50) under setting [1] amounted to 703 nM.

Take `O=C(Nc1cccc(Cl)c1)C1CCC2(CC1)CN(CC(F)(F)C1CCCCC1)C2` [Example 101]: the IC50 under setting [1] is 488 nM.

Regarding `O=C(Nc1cc(F)cc(Cl)c1)C1CCC2(CC1)CN(CCC1CCC(F)(F)CC1)C2` [Example 13], the half-maximal inhibitory concentration (IC50) is less than 1000 nM under setting [2] and 239 nM under setting [1].

Consider `CC1(NC(=O)CN2CC3(CCC(C(=O)Nc4cc(F)cc(Cl)c4)CC3)C2)CC1` [Example 59], for which, under setting [1], the half-maximal inhibitory concentration (IC50) was determined as 146 nM.

On to `O=C(CN1CC2(CCC(C(=O)Nc3cc(F)cc(C(F)F)c3)CC2)C1)NC1(C(F)(F)F)COC1` [Example 86], for which the IC50 under setting [1] came out at 344 nM.

Take `O=C(CN1CC2(CCC(C(=O)Nc3ccc(F)c(C(F)F)c3)CC2)C1)NC1(C(F)(F)F)CC1` [Example 127]: the IC50 under setting [1] is 492 nM.

Regarding `CC1(CCN2CC3(CCC(C(=O)Nc4cc(F)cc(C(F)F)c4)CC3)C2)CC1` [Example 38], the IC50 runs as follows: under setting [2], less than 1000 nM; under setting [1], 367 nM.

As to `N#CC1(CN2CC3(CCC(C(=O)NCc4cc(F)cc(Cl)c4)CC3)C2)CCCCC1` [Example 131], the IC50 under setting [1] stood at 664 nM.

`O=C(Nc1cc(F)cc(Cl)c1)C1CCC2(CC1)CN(Cc1cccc(Cl)c1)C2` [Example 23]: the IC50 reads like this: under setting [2], less than 1000 nM; under setting [1], 467 nM.

With `[2H]C([2H])([2H])C(NC(=O)CN1CC2(CCC(C(=O)Nc3cc(F)cc(OC)c3)CC2)C1)(C([2H])([2H])[2H])C([2H])([2H])[2H]` [Example 113], under setting [1], the IC50 turned out to be 415 nM.

On to `N#CC1(CN2CC3(CCC(C(=O)Nc4cc(F)cc(C(F)F)c4)CC3)C2)CCCCC1` [Example 94], for which, under setting [1], the half-maximal inhibitory concentration (IC50) worked out at 612 nM.

As to `N#CC1(CN2CC3(CCC(C(=O)Nc4cc(F)cc(Cl)c4)CC3)C2)CCCCC1` [Example 98], the IC50 under setting [1] worked out at 352 nM.

Regarding `CC(C)(C)CCN1CC2(CCC(C(=O)NC34CC5CC(CC(C5)C3)C4)CC2)C1` [Example 154], the IC50 under setting [1] came out at 1290 nM.

As for `O=C(CN1CC2(CCC(C(=O)Nc3ccc(F)c(Cl)c3)CC2)C1)NC1(C(F)(F)F)CC1` [Example 115], the concentration for half-maximal inhibition (IC50) under setting [1] amounted to 219 nM.

In the case of `CC(C)(NC(=O)CN1CC2(CCC(C(=O)Nc3cccc(C(F)F)c3)CC2)C1)C(F)(F)F` [Example 65], the IC50 under setting [1] was 430 nM.

Take `O=C(Nc1cc(F)cc(Cl)c1)C1CCC2(CC1)CN(Cc1cccc(C(F)F)c1)C2` [Example 19]: the half-inhibitory concentration (IC50) reads like this: under setting [2], less than 1000 nM; under setting [1], 624 nM.

With `N#CC1(CN2CC3(CCC(C(=O)Nc4cc(F)cc(Cl)c4)CC3)C2)CCC1` [Example 122], the IC50 under setting [1] came to 750 nM.

For `CN(CCN1CC2(CCC(C(=O)Nc3cc(F)cc(C(F)F)c3)CC2)C1)C(=O)C1(C)CC1` [Example 72], under setting [1], the IC50 turned out to be 1040 nM.

With `CC(C)(NC(=O)CN1CC2(CCC(C(=O)Nc3cccc(C(F)(F)F)c3)CC2)C1)C(F)(F)F` [Example 66], under setting [1], the half-inhibitory concentration (IC50) was 372 nM.

In the case of `CC(C)(C)S(=O)(=O)CCN1CC2(CCC(C(=O)Nc3cc(F)cc(Cl)c3)CC2)C1` [Example 95], the IC50 under setting [1] is 597 nM.

For the compound `O=C(NC12CCC(CC1)CC2)C1CCC2(CC1)CN(CC1(F)CCC(F)(F)CC1)C2` [Example 149], the IC50 under setting [1] came out at 688 nM.

Regarding `CC(C)(C)NC(=O)CN1CC2(CCC(C(=O)Nc3cccc(OC(F)F)c3)CC2)C1` [Example 55], under setting [1], the half-maximal inhibitory concentration (IC50) worked out at 296 nM.

In the case of `CC(C)(NC(=O)CN1CC2(CCC(CNC(=O)c3cccc(Cl)c3)CC2)C1)C(F)(F)F` [Example 146], the IC50 under setting [1] amounted to 435 nM.

`O=C(CN1CC2(CCC(C(=O)Nc3ccc(F)c(OC(F)(F)F)c3)CC2)C1)NC1(C(F)(F)F)CC1` [Example 123]: the IC50 under setting [1] was 297 nM.

In the case of `O=C(CN1CC2(CCC(C(=O)Nc3cc(F)cc(C(F)F)c3)CC2)C1)NC1CCCC1` [Example 32], the IC50 under setting [2] is less than 1000 nM and the IC50 under setting [1] came out at 139 nM.

`O=C(NC12CCC(CC1)CC2)C1CCC2(CC1)CN(CC1(O)CCC(F)(F)CC1)C2` [Example 155]: the IC50 under setting [1] came out at 606 nM.

As to `O=C(Nc1cc(F)cc(Cl)c1)C1CCC2(CC1)CN(CC1(F)CCC(F)(F)CC1)C2` [Example 73], under setting [1], the IC50 was found to be 333 nM.

Take `CC(C)(NC(=O)CN1CC2(CCC(C(=O)Nc3cccc(OC(F)(F)F)c3)CC2)C1)C(F)(F)F` [Example 70]: under setting [1], the concentration for half-maximal inhibition (IC50) is 333 nM.

Take `CC(C)(C)ONC(=O)CN1CC2(CCC(C(=O)Nc3cc(F)cc(Cl)c3)CC2)C1` [Example 67]: the half-maximal inhibitory concentration (IC50) under setting [1] was 580 nM.

Take `CC1(C(=O)NCCN2CC3(CCC(C(=O)Nc4cc(F)cc(C(F)F)c4)CC3)C2)CC1` [Example 49]: the IC50 under setting [1] was 723 nM.

For `CC1(CCN2CC3(CCC(C(=O)Nc4cc(F)cc(C(F)F)c4)CC3)C2)CCC1` [Example 43], the concentration for half-maximal inhibition (IC50) under setting [1] worked out at 300 nM.

On to `N#CC1(CN2CC3(CCC(C(=O)Nc4cccc(Cl)c4)CC3)C2)CCCCC1` [Example 103], for which the IC50 under setting [1] came to 544 nM.

With `Cc1cc(NC(=O)C2CCC3(CC2)CN(CC(=O)NC(C)(C)C)C3)nn1-c1ccccc1` [Example 6], the IC50 by setting is: under setting [2], 1000 to 10000 nM; under setting [1], 2280 nM.

As for `COc1cc(NC(=O)C2CCC3(CC2)CN(CC(=O)NC(C)(C)C)C3)ccc1F` [Example 156], under setting [1], the IC50 came out at 300 nM.

`O=C(Nc1cc(F)cc(Cl)c1)C1CCC2(CC1)CN(Cc1ccc(F)cc1)C2` [Example 14]: the concentration for half-maximal inhibition (IC50) was less than 1000 nM under setting [2] and 612 nM under setting [1].
